# Assays:
# [1] = tested on: Staphylococcus aureus (JCM-2151); test: Viability assay (survival rate) in cow's milk medium; assay type: cell-based; set-up: key to survival rate: % of control colony count 1 (control colony count 2 at peptide 0); conditions: for antimicrobial activity of the compound added without antimicrobial peptide or lactoferrin hydrolysate (in words): compound alone; for effect of the coexisting compound on the antimicrobial activity of the lactoferrin hydrolysate (in words): with lactoferrin hydrolysate 1
# Description: The colonies grown on the culture medium were scraped by a platinum loop and cultivated in 1% peptone (by Difco Company) culture medium for several hours at 37° C., and the resultant microbial culture at logarithmic phase was used as the preculture in a serial concentration of 3×10^8 /ml.
# A quantity of the resultant solutions of the samples were selectively mixed with a quantity of the basal medium, thereby test media for the respective tests were prepared in the combinations and eventual concentrations as specified in the respective tests.
# Utilizing the samples (5), (7), (8), (9), (10), (14), (15), (17), (18) and (19), test media were prepared in the same manner as in the preparation of the test media containing sample (3) and the like, except that the aqueous solution (in the cases of samples (5) and (7), aqueous suspensions) were not dealt with sterilization filters.
# To 2 ml aliquots of test media prepared in (3-1) (supra), […] aliquots of the preculture of Staphylococcus aureus prepared in (1) (2. Method, supra) were added, then incubated at 37° C. for 1 hour, 200 μl aliquots of the resultant cultures were taken out and diluted with 1% peptone solution in a series of 10^n respectively, 110 μl aliquots of the resultant dilution series were spread onto plates of standard agar culture medium, and after incubation at 37° C. for 24 hours the number of colonies grown on the plates were counted (Test. Colony Count).
# Control coloney counts 1 were determined in the same manner as in the determination of the test coloney counts, except that […] aliquots of the preculture of Staphylococcus aureus prepared in (1) (2. Method, supra) were added to 2 ml aliquots of the respective control media 1 prepared in (3-2) (supra). Furthermore, control coloney counts 2 were determined in the same manner as in the determination of the test coloney counts, except that […] aliquots of the preculture of Staphylococcus aureus prepared in (1) (supra) were added to 2 ml aliquots of the respective control media 1 prepared in (3-2) (supra).
# Survival rate 1=(Test Colony Count/Control Colony Count 1)×100
# Survival rate 2=(Control Colony Count 2/Control Colony Count 1)×100
# (Note: In the tables shown hereinafter, vulues of survival rate 2 are indicated in the row where the concentration of antimicrobial peptide or lactoferrin hydrolysate is 0.)
# [2] = tested on: methicillin-resistant Staphylococcus aureus (wild type); test: Viability assay in Mueller-Hington Broth on antibiotics-resistant microorganism; assay type: cell-based
# Description: Precultures of test microorganisms to be used in the tests described hereunder were prepared in such a manner that: from the frozen preservation of dispersions of test microorganisms, a loop of the respective strains of the microorganisms were taken out and spread onto TRI PETIT CASE SOYA AGAR MEDIA (by BBL Company), and incubated at 37° C. for 16 hours; the colonies grown on the culture media were scraped by a platinum loop and cultivated in 2.1% Mueller-Hington Broth (by Difco Company) respectively for several hours at 37° C. The resultant microbial cultures at logarithmic phase in 3×10^8 /ml of microbial concentration were used as the precultures.
# The test media to be used in the respective tests were prepared in such a manner that: aqueous solutions in a predetermined concentration of the lactoferrin hydrolysates or the lactoferrin-derived antimicrobial peptides of (1) and (2) in Preparation of Samples (supra), as well as the samples of antibiotics of (3) (supra) were respectively sterilized with filters (by Advantec Company); then a quantity of the resultant solutions of respective samples were selectively added to a quantity of basal medium (Mueller-Hington Broth) prepared in the eventual concentration of 2.1%, thereby combinations of the samples and their concentrations in the respective test media were adjusted as specified in the respective tests. […]
# [3] = with antimicrobial peptide Seq. ID No. 26
# [4] = with antimicrobial peptide Seq. ID No. 27
Compound,antimicrobial activity of the compound added without antimicrobial peptide or lactoferrin hydrolysate (in words) [1],"effect of the coexisting compound on the antimicrobial activity of the antimicrobial peptide (in words) [1, 3]",effect of the coexisting compound on the antimicrobial activity of the lactoferrin hydrolysate (in words) [1],also measured
"CCCCCCCCCCCCCC(=O)OCC(O)CO (racemic) [1-monomyristoyl-rac-glycerol, 1-monomyristoyl-rac-Glycerol]",the antimicrobial activity is low,augmented the antimicrobial activity of the peptide,,
CCCCCCCCCCCCCCCCCC(=O)OCC(O)CO (racemic) [1-monostearoyl-rac-glycerol],no antimicrobial activity was observed,augments the antimicrobial activity of the antimicrobial peptide,,"survival rate ([1]; Test 19: peptide 0, 1-monostearoyl-rac-glycerol 0.5 mg/ml): 116%; survival rate ([1]; Test 19: peptide 0, 1-monostearoyl-rac-glycerol 1 mg/ml): 133%; survival rate ([1]; Test 19: peptide 0, 1-monostearoyl-rac-glycerol 2 mg/ml): 98%"
"CCCCCCCC(=O)OCC(O)CO (racemic) [monocapryloyl-glycerol, 1-Monocapryloyl-rac-Glycerol]",no antimicrobial activity was observed,augments the antimicrobial activity of the peptide,,
"O=C([O-])CN(CCN(CC(=O)[O-])CC(=O)O)CC(=O)O.[Na+].[Na+] [EDTA.Na2, EDTA·Na2]",no antimicrobial activity was observed,,augments the antimicrobial activity of the lactoferrin hydrolysate,"survival rate ([1]; Test 9: lactoferrin hydrolysate 0, EDTA.Na2 0.1 mg/ml): 122; survival rate ([1]; Test 9: lactoferrin hydrolysate 0, EDTA.Na2 1 mg/ml): 115; survival rate ([1]; Test 9: lactoferrin hydrolysate 0, EDTA.Na2 5 mg/ml): 101"
"N[C@@H](CS)C(=O)O [L-cysteine, L-Cysteine]",antimicrobial activity was low,,,"effect of the coexisting compound on the antimicrobial activity of the antimicrobial peptide (in words) [1, 4]: augments the antimicrobial activity of the peptide"
"O=C1O[C@H]([C@@H](O)CO)C(O)=C1O [ascorbic acid, Ascorbic Acid]",no antimicrobial activity was observed,,augments the antimicrobial activity of the lactoferrin hydrolysate 1,"effect of the coexisting compound on the antimicrobial activity of the antimicrobial peptide (in words) [1, 4]: augments the antimicrobial activity of the peptide"
"C[C@H](CCC(=O)O)[C@H]1CC[C@H]2[C@@H]3[C@H](O)C[C@@H]4C[C@H](O)CC[C@]4(C)[C@H]3C[C@H](O)[C@]12C [cholic acid, Cholic Acid]",no antimicrobial activity was observed,further augments the antimicrobiaI activity of the peptide,augments the antimicrobial activity of the lactoferrin hydrolysate 1,"survival rate ([1]; Test 22: peptide 0, 1-monolauroyl-rac-glycerol 0, cholic acid 1 mg/ml): 92%"
"O=C(O)CC(O)(CC(=O)O)C(=O)O [citric acid, Citric Acid]",,,augments the antimicrobial activity of the lactoferrin hydrolysate 1,
"CCO [ethyl alcohol, Ethyl Alcohol]",no antimicrobial activity was observed,potentiates the antimicrobial activity of the peptide,,
"OCC(O)CO [glycerol, Glycerol]",no antimicrobial activity was observed,augments the antimicrobial activity of the peptide,,
CN(C)c1ccc(O)c2c1C[C@H]1C[C@H]3[C@H](N(C)C)C(O)=C(C(N)=O)C(=O)[C@@]3(O)C(O)=C1C2=O [minomycin],,,,"survival rate ([2]; Test 24: peptide 0, minomycin 10 μg/ml): 32%; survival rate ([2]; Test 24: peptide 0, minomycin 50 μg/ml): 5.2%"
"CC(O)CO (centres unmarked) [propylene glycol, Propylene Glycol]",no antimicrobial activity was observed,augmented the antimicrobial activity of the peptide,,
"OC[C@H]1O[C@@H]2O[C@H]3[C@H](O)[C@@H](O)[C@@H](O[C@H]4[C@H](O)[C@@H](O)[C@@H](O[C@H]5[C@H](O)[C@@H](O)[C@@H](O[C@H]6[C@H](O)[C@@H](O)[C@@H](O[C@H]7[C@H](O)[C@@H](O)[C@@H](O[C@H]8[C@H](O)[C@@H](O)[C@@H](O[C@H]1[C@H](O)[C@H]2O)O[C@@H]8CO)O[C@@H]7CO)O[C@@H]6CO)O[C@@H]5CO)O[C@@H]4CO)O[C@@H]3CO [β-cyclodextrin, β-Cyclodextrin]",no antimicrobial activity was observed,augments the antimicrobial activity of the peptide,,"survival rate ([1]; Test 4: peptide 0, β-cyclodextrin 0.1 mg/ml): 100; survival rate ([1]; Test 4: peptide 0, β-cyclodextrin 1 mg/ml): 109; survival rate ([1]; Test 4: peptide 0, β-cyclodextrin 2.5 mg/ml): 88"
Polyphosphoric Acid,no antimicrobial activity was observed,,augments the antimicrobial activity of the lactoferrin hydrolysate 1,"survival rate ([1]; Test 12: lactoferrin hydrolysate 0, polyphosphoric acid 0.1 mg/ml): 140; survival rate ([1]; Test 12: lactoferrin hydrolysate 0, polyphosphoric acid 1 mg/ml): 124; survival rate ([1]; Test 12: lactoferrin hydrolysate 0, polyphosphoric acid 5 mg/ml): 111"
tocopherol,no antimicrobial activity was observed,augments the antimicrobial activity of the peptide,,"survival rate ([1]; Test 3: peptide 0, tocopherol 0.1 mg/ml): 101; survival rate ([1]; Test 3: peptide 0, tocopherol 0.5 mg/ml): 113; survival rate ([1]; Test 3: peptide 0, tocopherol 1 mg/ml): 112"

# From US5656591A, “Antimicrobial agents and method for treating products therewith” (Morinaga Milk Industry Co., Ltd., priority 1992, dated 1997)
